# Earlier results, collected in patent publication US20100136095A1, “Systems for modulating inflammation” (Searete LLC, a limited liability corporation of the State …, priority 2008, published 2010).
# Columns and labels:
# [1] = infused at 400 mg over one hour, single agent
# [2] = test system: Src family kinase
# [3] = test system: Src family kinases (Src, Lck, Yes, Fyn); details: at nanomolar concentrations
# [4] = test system: proteasome; details: cultured breast cancer cells; disulfiram bound to copper
# [5] = test system: lethal septic shock; details: mice
structure (smiles),measurement,setting,value
"CCN(CC)CCCC(C)Nc1ccnc2cc(Cl)ccc12.O=P(O)(O)O.O=P(O)(O)O (centres unmarked) [Chloroquine phosphate, 7-chloro-4-[[4-(diethylamino)-1-methylbutyl]amino]quinoline phosphate (1:2)]",tolerability of infusion,[1],without complication
CCN(CC)CCCC(C)Nc1ccnc2cc(Cl)ccc12 (centres unmarked) [Chloroquine],inhibition of CpG-induced Src family kinase activation or its dependent cellular responses,[2],does not inhibit
"Cc1nc(Nc2ncc(C(=O)Nc3c(C)cccc3Cl)s2)cc(N2CCN(CCO)CC2)n1.O [Dasatinib, N-(2-chloro-6-methylphenyl)-2-[[6-[4-(2-hydroxyethyl)-1-piperazinyl]-2-methyl-4-pyrimidinyl]amino]-5-thiazolecarboxamide, monohydrate]","inhibition of Src family kinases (Src, Lck, Yes, Fyn)",[3],inhibits
"CCN(CC)C(=S)SSC(=S)N(CC)CC [Disulfiram, 1-(diethylthiocarbamoyldisulfanyl)-N,N-diethyl-methanethioamide]",proteasomal activity,[4],inhibits proteasomal activity
"Cl.Cl.Nc1ccccc1Oc1ccc2c(N)nsc2c1 [Example M62812, 3-amino-6-(2-aminophenoxy)-1,2-benzisothiazole dihydrochloride]",prevention of lethal septic shock,[5],prevents lethal septic shock
